According to patent publication US7928099B2, “Pyrimido [4,5-D] azepine derivatives as 5-HT2c agonists” (Pfizer Inc, priority 2007, dated 2011):
Counter-ions that a name gives are not always drawn.

Legend:
[1] = target: T1, human recombinant 5-HT2c receptor (Homo sapiens, UniProt P28335); experiment: 3H-meselurgine radioligand binding SPA, membranes from Swiss 3T3 cells (Method 2); conditions: 3H-meselurgine displacement, Cheng-Prusoff; Swiss 3T3 membranes; read-out: Binding Affinity Ki
T1 construct: expressed in transfected cells; host or cells: CHO K1 (Chinese hamster ovary), stably transfected
T1 sequence (P28335 33-458): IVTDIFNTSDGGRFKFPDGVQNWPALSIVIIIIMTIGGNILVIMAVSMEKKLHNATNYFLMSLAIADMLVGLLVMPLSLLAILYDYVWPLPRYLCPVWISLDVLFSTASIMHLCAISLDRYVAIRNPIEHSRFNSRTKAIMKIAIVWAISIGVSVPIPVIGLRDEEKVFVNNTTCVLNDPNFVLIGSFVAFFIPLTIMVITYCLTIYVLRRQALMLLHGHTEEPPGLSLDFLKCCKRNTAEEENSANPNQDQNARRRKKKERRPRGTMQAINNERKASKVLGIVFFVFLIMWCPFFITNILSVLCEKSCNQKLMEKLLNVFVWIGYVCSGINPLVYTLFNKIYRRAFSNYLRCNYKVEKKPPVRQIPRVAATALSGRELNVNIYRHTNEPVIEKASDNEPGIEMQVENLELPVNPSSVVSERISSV
Description: (§1) The compounds of the invention were evaluated for biological activity by measuring the agonist affinity (EC50) and efficacy (Emax) at the human recombinant 5-HT2c receptor expressed in CHO K1 cells, using a fluorescent based Ca^2+ mobilisation assay format compatible with FLIPR technology (Method 1). Additionally, the binding activity of a compound was determined by measuring its affinity for the human recombinant 5-HT2c receptor membranes from Swiss 3T3 cells (Method 2).
The compounds were tested for biological activity by their ability to inhibit binding of the radioligand ^3H-meselurgine at the human recombinant 5-HT2C receptor expressed in the Swiss 3T3 cells using a scintillation proximity assay (SPA) technology.
Swiss 3T3 stably transfected with the 5-HT2C receptor were cultured under standard cell culture techniques. Specifically, cells were grown in 50 mL growth medium (Dulbecco's Modified Eagle's Medium (DMEM) culture media supplemented with 10% dialysed foetal calf serum (FCS), 2 mM penicillin/streptomycin and 20 μg/mL geneticin) in 225 cm^2 flasks at 37° C. and 5% CO2. Cells were grown to 60-80% confluency, harvested using trypsin-EDTA and pelleted by centrifugation for long-term storage at −80° C.
Cell pellets were thawed on ice and resuspended in 3 mL of membrane preparation buffer (see Media and Buffers for composition) per 1 mL of packed cell. The suspension was homogenised on ice for several 5 s intervals using a hand-held homogeniser. The homogenate was then centrifuged at 1,000 rpm for 5 min at 4° C.
The supernatants were then collected and retained. Initial cell & nuclei pellets (P1) were subsequently rehomogenised and centrifuged using the conditions cited above, and the supernatants collected and pooled with those retained from the first spin.
The pooled supernatants were centrifuged at 19,500 rpm for 45 min at 4° C., and the supernatants discarded. The pellets (P2) were then resuspended in 3 mL of membrane preparation buffer per 1 mL of the original packed cell volume. Protein concentrations were subsequently measured and the membrane suspension was finally frozen in aliquots of set volume and stored at −80° C. prior to use in assays.
For each batch of membrane used, optimal concentrations of Polylysine YSi SPA beads and membrane were determined. The assay free radioligand concentration was expressed as a percentage of the total free radioligand concentration to give an estimate of the radioligand depletion.
The affinity of ^3H-meselurgine for the human recombinant 5-HT2c receptor was determined for each membrane batch at the selected protein and bead concentrations. […] The mean KD for ^3H-meselurgine at a batch of membranes was determined from data from a minimum of three separate assays.
The required amount of membrane, was thawed on ice and added to a pre-determined volume of bead suspension in 50 mM HEPES buffer, pH 7.4. The beads were then pre-coupled by incubating the predetermined protein quantity per mg of bead on a roller 4° C. for 1 h. Subsequently, the bead/membrane complex was spun down at 1000 rpm for 5 min. The resulting pellet was resuspended in assay buffer at the specific concentration required for the final assay.
An aliquot of [^3H]-meselurgine stock was diluted in binding assay buffer to give a pre-determined final assay concentration less than the equilibrium dissociation constant (KD) value.
All test compounds were prepared at a concentration of 4 mM in 100% dimethyl sulphoxide (DMSO) from dry samples.
The same volume of assay buffer was added to specific wells of the plate to enable subsequent measurement of total radioligand binding. Furthermore, 5 μL of Mianserin at 25 μM (2.5 μM final assay concentration was subsequently added to pre-determined wells to determine non-specific binding (NSB).

[2] = target: T1, human recombinant 5-HT2c receptor; experiment: FLIPR fluorescent Ca2+ mobilisation agonist assay in CHO K1 cells (Method 1); type: cell-based; conditions: for Emax: CHO-K1, efficacy; for Emax / Emax %: percentage of mean maximal response to 10 μM 5-HT; for EC50: agonist affinity, FLIPR; for Emax %: efficacy
Description: as §1
The agonist affinity of the compounds were tested by measuring their ability to induce a fluorescent based Ca^2+ mobilization signal in a FLIPR assay using CHO K1 cells expressing recombinant human 5-HT2C receptor. Both agonist affinity (EC50) and efficacy (Emax) were determined.
Chinese hamster ovary cells (CHO K1) stably transfected with the 5-HT2c receptor were cultured under standard cell culture techniques. Specifically, cells were grown at 37° C. and 5% CO2 in Dulbecco's Modified Eagle's Medium (DMEM) culture media supplemented with 10% dialysed foetal calf serum (FCS), 1% non-essential amino acids, 1 mM sodium pyruvate, 800 μg/mL geneticin and 50 μg/ml zeocin. Cells were harvested for passaging and storage using trypsin-EDTA, centrifugation and resuspension in culture medium. Cells were grown to 60-80% confluency, harvested and adjusted to 15-20×10^6 cells/ml/vial in medium/10% DMSO and stored long-term at −80° C.
Cells were seeded into black-walled clear-bottomed 384 well plates 24 h before use. Frozen cells were defrosted in a 37° C. water bath and immediately transferred into 1 mL/vial 37° C. culture medium, diluted to 10 ml and DMSO removed by centrifugation. The cells were resuspended in 15 ml/vial of cell culture medium, counted and adjusted to give 500,000 cells/mL (10,000 cells/well). […] of cell suspension was added to the 384 well plates which were then incubated overnight at 37° C.
The maximum agonist response was determined with 5-HT at a final assay concentration of 10 μM in the diluent above. The minimum response was determined with Dulbeccos PBS (+CaCl2, +MgCl2) with 0.9% DMSO and 0.05% pluronic F-127. Test compounds, maximum and minimum controls were added to a 384 well polypropylene plate.
The FLIPR calcium assay reagent was diluted with assay buffer (Hank's Balanced Salt Solution (HBSS))/20 mM HEPES and 2.5 mM probenecid (diluted with 1M Sodium hydroxide and DPBS (+CaCl2, +MgCl2)).
20 μl/well FLIPR calcium assay reagent was added to the cell plates, which were incubated for 1 h at 37° C. Cell plates and compound plates were then transferred onto the FLIPR. The assay was run using the appropriate FLIPR program, which initiates the reaction by transferring 15 μL compound into the corresponding, well of the cell plate.
The statistical parameter exported from each well was the max peak height of the response.

SMILES	Ki [1] [µM]	Emax [2] [%]	EC50 [2] [µM]	Emax % [2] [%]
OC1CCN(c2nc(Cc3ccccc3)nc3c2CCNCC3)C1 (stereo not drawn) [Example 44, 1-(2-benzyl-6,7,8,9-tetrahydro-5H-pyrimido[4,5-d]azepin-4-yl)pyrrolidin-3-ol hydrochloride]	0.139	75.5	0.136	
OC(c1ccccc1)c1ncc2c(n1)CCNCC2 (single isomer, unassigned; stereoisomer 1) [Example 70, Phenyl-(6,7,8,9-tetrahydro-5H-pyrimido[4,5-d]azepin-2-yl)-methanol dihydrochloride (Stereoisomer 1)]	0.978	76	0.643	
CC(CO)Nc1nc(Cc2ccccc2)nc2c1CCNCC2 (stereo not drawn) [Example 33, 2-[(2-benzyl-6,7,8,9-tetrahydro-5H-pyrimido[4,5-d]azepin-4-yl)amino]propan-1-ol hydrochloride]	0.125	58.5	0.424	
OC1CCCN(c2nc(Cc3ccccc3)nc3c2CCNCC3)C1 (stereo not drawn) [Example 18, 1-(2-benzyl-6,7,8,9-tetrahydro-5H-pyrimido[4,5-d]azepin-4-yl)piperidin-3-ol hydrochloride]	0.243	51.3	0.558	
OCC1CCN(c2nc(Cc3ccccc3)nc3c2CCNCC3)C1 (stereo not drawn) [Example 42, [1-(2-benzyl-6,7,8,9-tetrahydro-5H-pyrimido[4,5-d]azepin-4-yl)pyrrolidin-3-yl]methanol hydrochloride]	0.102	75.4	0.067	
CCc1nc(Cc2ccccc2)nc2c1CCNCC2 [Example 52, 2-Benzyl-4-ethyl-6,7,8,9-tetrahydro-5H-pyrimido[4,5-d]azepine]	0.142	71.6	0.314	
c1ccc(Cc2nc3c(c(NCC4CCCO4)n2)CCNCC3)cc1 (stereo not drawn) [Example 19, 2-benzyl-N-(tetrahydrofuran-2-ylmethyl)-6,7,8,9-tetrahydro-5H-pyrimidol[4,5-d]azepin-4-amine hydrochloride]	0.0524	36.3	0.344	
FC1CCN(c2nc(Cc3ccccc3)nc3c2CCNCC3)C1 (stereo not drawn) [Example 43, 2-benzyl-4-(3-fluoropyrrolidin-1-yl)-6,7,8,9-tetrahydro-5H-pyrimido[4,5-d]azepine hydrochloride]	0.061	52.6	0.19	
Fc1ccc(Cc2ncc3c(n2)CCNCC3)cc1 [Example 62, 2-(4-Fluorobenzyl)-6,7,8,9-tetrahydro-5H-pyrimido[4,5-d]azepine]	0.471	59.6	0.309	
c1ccc(Cc2nc3c(c(NC4CCOC4)n2)CCNCC3)cc1 (stereo not drawn) [Example 39, 2-benzyl-N-(tetrahydrofuran-3-yl)-6,7,8,9-tetrahydro-5H-pyrimido[4,5-d]azepin-4-amine hydrochloride]	0.696	30.6	0.516	
CN(C)c1ncc2c(n1)CCNCC2 [Example 50, N,N-dimethyl-6,7,8,9-tetrahydro-5H-pyrimido[4,5-d]azepin-2-amine hydrochloride]	0.552	100	0.481	
FC(F)(F)c1cccc(Cc2ncc3c(n2)CCNCC3)c1 [Example 63, 2-[3-(Trifluoromethyl)benzyl]-6,7,8,9-tetrahydro-5H-pyrimido[4,5-d]azepine]	0.308	44.1	0.298	
Cc1nc(Cc2ccccc2)nc2c1CCNCC2 [Example 68, 2-Benzyl-4-methyl-6,7,8,9-tetrahydro-5H-pyrimido[4,5-d]azepine]	0.421	71.4	0.179	
c1ccc(Cc2nc3c(c(-n4cccn4)n2)CCNCC3)cc1 [Example 1, 2-Benzyl-4-(1H-pyrazol-1-yl)-6,7,8,9-tetrahydro-5H-pyrimido[4,5-d]azepine]	0.072	83.5	0.224	
CN(C)c1nc(N(C)CC2CC2)nc2c1CCNCC2 [Example 104, N-2-(cyclopropylmethyl)-N-2,N-4,N-4-trimethyl-6,7,8,9-tetrahydro-5H-pyrimido[4,5-d]azepine-2,4-diamine]	0.0903	69	0.282	
CN(CC1CC1)c1nc(N2CCSCC2)nc2c1CCNCC2 [Example 90, N-(cyclopropylmethyl)-N-methyl-2-thiomorpholin-4-yl-6,7,8,9-tetrahydro-5H-pyrimido[4,5-d]azepin-4-amine]	0.0247	87.3	0.0759	
CN(Cc1ccccc1)c1nc2c(c(N3CCOCC3)n1)CCNCC2 [Example 15, N-benzyl-N-methyl-4-morpholin-4-yl-6,7,8,9-tetrahydro-5H-pyrimido[4,5,d]azepin-2-amine]	0.181		0.202	64.10
CC1CNCCc2cnc(Cc3ccccc3)nc21 (single isomer, unassigned) [47 (Peak 2), 2-Benzyl-9-methyl-6,7,8,9-tetrahydro-5H-pyrimido[4,5-d]azepine]	0.218	76.6	0.233	
CC1CNCCc2cnc(Cc3ccccc3)nc21 (single isomer, unassigned) [47 (Peak 1), 2-Benzyl-9-methyl-6,7,8,9-tetrahydro-5H-pyrimido[4,5-d]azepine]	0.133		0.453	96.40
Cc1cccc(Cc2ncc3c(n2)CCNCC3)c1 [Example 65, 2-(3-Methylbenzyl)-6,7,8,9-tetrahydro-5H-pyrimido[4,5-d]azepine]	0.244	83.9	0.211	
